Reference: patent publication US7550558B2, “Antimicrobial peptides and methods for identifying and using such peptides” (priority 2001, dated 2009)
No end group written: not given here.

How the values were obtained:
[1] = tested on: Aspergillus nidulans
[2] = tested on: Staphylococcus aureus
[3] = tested on: Candida albicans
[4] = tested on: Micrococcus luteus
[5] = tested on: Escherichia coli
[6] = literature; cited from earlier work

Row | Sequence | minimum inhibitory concentration (MIC) [1] | concentrations with no antibacterial effect (MIC) [2] | minimum inhibitory concentration (MIC) [3] | concentrations with no antibacterial effect (MIC) [4] | concentrations with no antibacterial effect (MIC) [5] | cytotoxic property [6] | hemolytic property [6]
1 | HPLKQYWWRPSI [PW2, HPLKQYWWRPSI] | 25 to 50 µg/mL | > 200 µg/mL | 12.5 to 25 µg/mL | > 200 µg/mL | > 200 µg/mL | – | –
2 | ILPWLWPWWPWRR [indolicidin] | – | – | – | – | – | cytotoxic | hemolytic
3 | VRRFPWWWPFLRR [tritrpticin] | – | – | – | – | – | cytotoxic | hemolytic
